T/C data for 17 molecules are collected here from PubChem BioAssay AID256 (DTP/NCI, 2004).

The test system of this assay is CD2F1 mice, L1210 leukemia ip, survival T/C. In words: NCI In Vivo Anticancer Drug Screen. Data for tumor model L1210 Leukemia (intraperitoneal) in CD2F1 (CDF1) mice. The settings on record: higher = longer survival. The method, boiled down:
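Transplantable tumor in mice; compound-treated vs vehicle-treated groups. Read-out = treated/control ratio of the measured endpoint.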

Setting [1] is: endpoint: mean survival time, dose: 100.0 mg/kg/injection, schedule: Q01DX009 (ip), vehicle: saline with Tween-80.
[2] abbreviates: endpoint: mean survival time, dose: 200.0 mg/kg/injection, schedule: Q01DX009 (ip), vehicle: saline with Tween-80.
Where [3] appears, read: endpoint: mean survival time, dose: 400.0 mg/kg/injection, schedule: Q01DX009 (ip), vehicle: saline with Tween-80.
Where [4] appears, read: endpoint: mean survival time, dose: 100.0 mg/kg/injection, schedule: Q01DX001 (ip), vehicle: saline.
The mark [5] stands for this setting: endpoint: mean survival time, dose: 200.0 mg/kg/injection, schedule: Q01DX001 (ip), vehicle: saline.
Where [6] appears, read: endpoint: mean survival time, dose: 400.0 mg/kg/injection, schedule: Q01DX001 (ip), vehicle: saline.
Setting [7] is: endpoint: mean survival time, dose: 100.0 mg/kg/injection, schedule: Q01DX001 (ip), vehicle: saline with Tween-80.
Where [8] appears, read: endpoint: mean survival time, dose: 200.0 mg/kg/injection, schedule: Q01DX001 (ip), vehicle: saline with Tween-80.

Values joined by “and” are separate entries in the source; they are usually repeats but may differ in a detail not shown here. Identical values can stand only once. Inconclusive results and toxic doses are left out.

Turning to `NC(=S)N/N=C/c1ccc(C(F)(F)F)cn1`, the T/C runs as follows: (endpoint: mean survival time, dose: 12.5 mg/kg/injection, schedule: Q04DX002 (ip), vehicle: saline with Tween-80) 100 % of control and 102 % of control; (endpoint: mean survival time, dose: 13.3 mg/kg/injection, schedule: Q01DX001 (ip), vehicle: saline with Tween-80) 96 % of control; (endpoint: mean survival time, dose: 13.3 mg/kg/injection, schedule: Q01DX009 (ip), vehicle: Klucel (hydroxypropylcellulose) (HPC)) 100 % of control; (endpoint: mean survival time, dose: 13.3 mg/kg/injection, schedule: Q01DX009 (ip), vehicle: saline with Tween-80) 122 % of control; (endpoint: mean survival time, dose: 20.0 mg/kg/injection, schedule: Q01DX001 (ip), vehicle: saline with Tween-80) 100 % of control; (endpoint: mean survival time, dose: 20.0 mg/kg/injection, schedule: Q01DX009 (ip), vehicle: Klucel (hydroxypropylcellulose) (HPC)) 96 % of control. For the same molecule, the T/C was 171 % of control (endpoint: mean survival time, dose: 20.0 mg/kg/injection, schedule: Q01DX009 (ip), vehicle: saline with Tween-80); 105 % of control and 107 % of control (endpoint: mean survival time, dose: 25.0 mg/kg/injection, schedule: Q04DX002 (ip), vehicle: saline with Tween-80); 107 % of control (endpoint: mean survival time, dose: 30.0 mg/kg/injection, schedule: Q01DX001 (ip), vehicle: saline with Tween-80); 106 % of control (endpoint: mean survival time, dose: 30.0 mg/kg/injection, schedule: Q01DX009 (ip), vehicle: Klucel (hydroxypropylcellulose) (HPC)); 108 % of control (endpoint: mean survival time, dose: 45.0 mg/kg/injection, schedule: Q01DX001 (ip), vehicle: saline with Tween-80); 102 % of control (endpoint: mean survival time, dose: 45.0 mg/kg/injection, schedule: Q01DX009 (ip), vehicle: saline with Tween-80). Besides, the T/C was 105 % of control (endpoint: mean survival time, dose: 50.0 mg/kg/injection, schedule: Q04DX002 (ip), vehicle: saline with Tween-80) and 111 % of control (endpoint: mean survival time, dose: 67.5 mg/kg/injection, schedule: Q01DX001 (ip), vehicle: saline with Tween-80).
Take `O=NN(CC(=O)N/N=C\c1ccc(Cl)cc1)CC(=O)N/N=C/c1ccc(Cl)cc1`: the T/C is, setting by setting: under setting [1], 91 % of control; under setting [2], 94 % of control; under setting [3], 96 % of control.
Take `CN(C)C(=S)NCc1ccccc1`: the T/C (endpoint: mean survival time, dose: 100.0 mg/kg/injection, schedule: Q04DX003 (ip), vehicle: saline with Tween-80) is 105 % of control; the T/C (endpoint: mean survival time, dose: 200.0 mg/kg/injection, schedule: Q04DX003 (ip), vehicle: saline with Tween-80) was 109 % of control; the T/C (endpoint: mean survival time, dose: 400.0 mg/kg/injection, schedule: Q04DX003 (ip), vehicle: saline with Tween-80) was 87 % of control.
As to `N#CCCCCCCN=[N+]=[N-]`, the T/C is, setting by setting: (endpoint: mean survival time, dose: 75.0 mg/kg/injection, schedule: Q01DX001 (ip), vehicle: saline) 98 % of control; (endpoint: mean survival time, dose: 150.0 mg/kg/injection, schedule: Q01DX001 (ip), vehicle: saline) 98 % of control.
Regarding `COC(=O)C1=CCC[N+](C)(C)C1`, the T/C (endpoint: mean survival time, dose: 1.56 mg/kg/injection, schedule: Q04DX002 (ip), vehicle: saline) is 93 % of control; the T/C (endpoint: mean survival time, dose: 3.13 mg/kg/injection, schedule: Q04DX002 (ip), vehicle: saline) is 93 % of control; the T/C (endpoint: mean survival time, dose: 6.25 mg/kg/injection, schedule: Q04DX002 (ip), vehicle: saline) was 93 % of control and 105 % of control.
Consider `O=C1C2CC3C1C1(Cl)C(Cl)C4(Cl)C2C3C1(Cl)C4(Cl)Cl` (configuration not stated), for which the T/C runs as follows: (endpoint: mean survival time, dose: 9.5 mg/kg/injection, schedule: Q01DX001 (ip), vehicle: other) 98 % of control; (endpoint: mean survival time, dose: 19.0 mg/kg/injection, schedule: Q01DX001 (ip), vehicle: other) 104 % of control; (endpoint: mean survival time, dose: 38.0 mg/kg/injection, schedule: Q01DX001 (ip), vehicle: other) 103 % of control; (endpoint: mean survival time, dose: 75.0 mg/kg/injection, schedule: Q01DX001 (ip), vehicle: other) 104 % of control.
As for `CN(C)C=Nc1ccc(Cl)c(Cl)c1`, the T/C reads like this: (endpoint: mean survival time, dose: 25.0 mg/kg/injection, schedule: Q04DX003 (ip), vehicle: saline) 98 % of control; (endpoint: mean survival time, dose: 50.0 mg/kg/injection, schedule: Q04DX003 (ip), vehicle: saline) 92 % of control.
In the case of `CC12CCCC=C1N(C=O)c1ccccc12` (configuration not stated), the T/C is, setting by setting: under setting [4], 95 % of control; under setting [5], 100 % of control; under setting [6], 95 % of control.
For `CC(=O)Nc1ccsc1`, the T/C by setting is: under setting [4], 96 % of control; under setting [5], 95 % of control; under setting [6], 95 % of control.
Consider `Cn1cc(C2OC(CO)C(O)C2O)c(=O)[nH]c1=O` (configuration not stated), for which the T/C is, setting by setting: (endpoint: mean survival time, dose: 12.5 mg/kg/injection, schedule: Q01DX005 (ip), vehicle: water) 97 % of control; (endpoint: mean survival time, dose: 25.0 mg/kg/injection, schedule: Q01DX005 (ip), vehicle: water) 103 % of control; (endpoint: mean survival time, dose: 50.0 mg/kg/injection, schedule: Q01DX005 (ip), vehicle: water) 103 % of control; (endpoint: mean survival time, dose: 100.0 mg/kg/injection, schedule: Q01DX005 (ip), vehicle: water) 100 % of control; (endpoint: mean survival time, dose: 200.0 mg/kg/injection, schedule: Q01DX005 (ip), vehicle: water) 103 % of control.
With `C[CH2][Sn]([Cl])([CH2]C)[c]1cc[c]([Sn]([Cl])([CH2]C)[CH2]C)cc1`, the T/C was 103 % of control (endpoint: median survival time, dose: 0.06 mg/kg/injection, schedule: Q01DX005 (ip), vehicle: Klucel (hydroxypropylcellulose) (HPC)); 112 % of control (endpoint: median survival time, dose: 0.12 mg/kg/injection, schedule: Q01DX005 (ip), vehicle: Klucel (hydroxypropylcellulose) (HPC)); 103 % of control (endpoint: median survival time, dose: 3.8 micrograms/kg/injection, schedule: Q01DX005 (ip), vehicle: Klucel (hydroxypropylcellulose) (HPC)); 100 % of control (endpoint: median survival time, dose: 7.5 micrograms/kg/injection, schedule: Q01DX005 (ip), vehicle: Klucel (hydroxypropylcellulose) (HPC)); 102 % of control (endpoint: median survival time, dose: 15.0 micrograms/kg/injection, schedule: Q01DX005 (ip), vehicle: Klucel (hydroxypropylcellulose) (HPC)); 98 % of control (endpoint: median survival time, dose: 30.0 micrograms/kg/injection, schedule: Q01DX005 (ip), vehicle: Klucel (hydroxypropylcellulose) (HPC)). Moreover, the T/C was 103 % of control (endpoint: median survival time, dose: 60.0 micrograms/kg/injection, schedule: Q01DX005 (ip), vehicle: Klucel (hydroxypropylcellulose) (HPC)) and 109 % of control (endpoint: median survival time, dose: 120.0 micrograms/kg/injection, schedule: Q01DX005 (ip), vehicle: Klucel (hydroxypropylcellulose) (HPC)).
Regarding `CC(C)CCCC(C)C1CCC2C3CC=C4CC(OC(=O)CCC(C)C)CC(O)C4(C)C3CCC12C` (configuration not stated), the T/C was 96 % of control under setting [1], 94 % of control under setting [2] and 94 % of control under setting [3].
`CCOc1ccc(-c2nc(N)nc(N)n2)cc1`: the T/C runs as follows: (endpoint: mean survival time, dose: 12.5 mg/kg/injection, schedule: Q01DX009 (ip), vehicle: water) 101 % of control; (endpoint: mean survival time, dose: 25.0 mg/kg/injection, schedule: Q01DX009 (ip), vehicle: water) 97 % of control; (endpoint: mean survival time, dose: 50.0 mg/kg/injection, schedule: Q01DX009 (ip), vehicle: water) 97 % of control; (endpoint: mean survival time, dose: 100.0 mg/kg/injection, schedule: Q01DX009 (ip), vehicle: water) 97 % of control; (endpoint: mean survival time, dose: 200.0 mg/kg/injection, schedule: Q01DX009 (ip), vehicle: water) 97 % of control.
As to `CC(C)(CC(=O)O)c1ccccc1`, the T/C is 97 % of control (endpoint: mean survival time, dose: 100.0 mg/kg/injection, schedule: Q04DX003 (ip), vehicle: saline sonified); 101 % of control (endpoint: mean survival time, dose: 200.0 mg/kg/injection, schedule: Q04DX003 (ip), vehicle: saline sonified); 97 % of control (endpoint: mean survival time, dose: 400.0 mg/kg/injection, schedule: Q04DX003 (ip), vehicle: saline sonified).
Take `CCN(CC)CCNc1ncnc(N)c1C(=C(C)C)c1ccc(Cl)cc1`: the T/C reads like this: (endpoint: mean survival time, dose: 50.0 mg/kg/injection, schedule: Q01DX009 (ip), vehicle: saline with Tween-80) 96 % of control; under setting [7], 94 % of control; under setting [1], 96 % of control; under setting [8], 86 % of control; under setting [2], 87 % of control.
Turning to `CCCCCCCCCCCCCCCCSC(=S)OCC`, the T/C under setting [7] is 95 % of control; the T/C under setting [1] is 96 % of control; the T/C under setting [8] was 87 % of control; the T/C under setting [2] is 95 % of control; the T/C (endpoint: mean survival time, dose: 400.0 mg/kg/injection, schedule: Q01DX001 (ip), vehicle: saline with Tween-80) is 95 % of control; the T/C under setting [3] was 95 % of control.
As for `CC(CN(C)C)CN1c2ccccc2Sc2ccc(C(F)(F)F)cc21` (configuration not stated), the T/C is 94 % of control (endpoint: mean survival time, dose: 0.63 mg/kg/injection, schedule: Q04DX003 (ip), vehicle: saline); 96 % of control (endpoint: mean survival time, dose: 1.25 mg/kg/injection, schedule: Q04DX003 (ip), vehicle: saline); 91 % of control (endpoint: mean survival time, dose: 2.5 mg/kg/injection, schedule: Q04DX003 (ip), vehicle: saline); 91 % of control (endpoint: mean survival time, dose: 6.25 mg/kg/injection, schedule: Q01DX009 (ip), vehicle: saline); 102 % of control (endpoint: mean survival time, dose: 12.5 mg/kg/injection, schedule: Q01DX009 (ip), vehicle: saline).
